# Data published in patent US9856279B2 (AGIOS PHARMACEUTICALS, INC, priority 2011, dated 2018).
# Target: IDH1 R132H (Homo sapiens, UniProt O75874, R132H)
# Assay: Assay for IDH1 R132H inhibitors (NADPH/aKG, resazurin detection)
# Format: biochemical
# Conditions: Table 3; enzyme assay, 50 minutes at room temperature; read-out: IC50 (IDH1 R132H Inhibition)
# Method in brief: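 Compound added to substrate mix (8 uM NADPH, 2 mM aKG), then enzyme mix (0.2 μg/ml IDH1 R132H); 50 min RT in 20 mM Tris pH 7.5, 150 mM NaCl, 10 mM MgCl2, 0.03% BSA. Resazurin detection mix (30 μM) 5 min RT; resorufin fluorescence Ex544/Em590.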
# Sequence of IDH1 R132H (O75874 whole entry R132H): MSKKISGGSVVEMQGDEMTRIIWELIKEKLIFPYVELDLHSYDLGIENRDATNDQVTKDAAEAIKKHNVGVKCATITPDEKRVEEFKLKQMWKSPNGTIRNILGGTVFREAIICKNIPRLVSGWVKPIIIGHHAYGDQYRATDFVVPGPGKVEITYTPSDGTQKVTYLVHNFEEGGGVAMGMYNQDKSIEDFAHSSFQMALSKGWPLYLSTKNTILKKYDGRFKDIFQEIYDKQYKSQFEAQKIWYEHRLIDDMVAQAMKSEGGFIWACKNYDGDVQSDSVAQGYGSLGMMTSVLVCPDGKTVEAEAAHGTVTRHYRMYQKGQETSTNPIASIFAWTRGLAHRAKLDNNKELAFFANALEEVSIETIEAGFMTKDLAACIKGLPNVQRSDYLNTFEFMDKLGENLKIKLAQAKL
row,IC50,SMILES
1,5000 to 15000 nM,"CC(C)c1cc(-c2ccccc2)nc(N2CCN(C(=O)c3ccco3)CC2)c1C#N [Compound 103, 2-(4-(furan-2-carbonyl)piperazin-1-yl)-4-isopropyl-6-phenylnicotinonitrile]"
2,1000 to 5000 nM,"CC(C)c1nc(N2CCN(C(=O)Cc3ccccc3)CC2)c(C#N)cc1-c1ccccc1 [Compound 126, 6-isopropyl-5-phenyl-2-(4-(2-phenylacetyl)piperazin-1-yl)nicotinonitrile]"
3,≤ 1000 nM,"COCCC(=O)N1CCN(c2nc(C3CC3)c(-c3cncc4ccccc34)cc2C#N)C[C@H]1C [Compound 242, (R)-6-cyclopropyl-5-(isoquinolin-4-yl)-2-(4-(3-methoxypropanoyl)-3-methylpiperazin-1-yl)nicotinonitrile]"
4,≤ 1000 nM,"COCCC(=O)N1CCN(c2nc(C3CC3)c(-c3ccsc3)c(C)c2C#N)C[C@H]1C [Compound 262, (R)-6-cyclopropyl-2-(4-(3-methoxypropanoyl)-3-methylpiperazin-1-yl)-4-methyl-5-(thiophen-3-yl)nicotinonitrile]"
5,5000 to 15000 nM,"CC[C@@H]1CN(c2nc(C(C)C)c(-c3ccccc3)cc2C#N)CCN1C(=O)c1ccco1 [Compound 172, (R)-2-(3-ethyl-4-(furan-2-carbonyl)piperazin-1-yl)-6-isopropyl-5-phenylnicotinonitrile]"
6,1000 to 5000 nM,"CC(C)c1cc(-c2ccccc2)c(C#N)c(N2CCN(C(=O)c3ccco3)CC2c2ccccc2)n1 (stereo not drawn) [Compound 167, 2-(4-(furan-2-carbonyl)-2-phenylpiperazin-1-yl)-6-isopropyl-4-phenylnicotinonitrile]"
7,5000 to 15000 nM,"CC(C)c1cc(-c2cccc(F)c2)c(C#N)c(N2CCN(C(=O)c3c[nH]c4ccccc34)C(C)C2)n1 (stereo not drawn) [Compound 129, 2-(4-(1H-indole-3-carbonyl)-3-methylpiperazin-1-yl)-4-(3-fluorophenyl)-6-isopropylnicotinonitrile]"
8,1000 to 5000 nM,"CC(C)c1nc(N2CCN(C(=O)c3ccoc3)[C@H](C)C2)c(C#N)cc1-c1cccc(F)c1 [Compound 161, (R)-5-(3-fluorophenyl)-2-(4-(furan-3-carbonyl)-3-methylpiperazin-1-yl)-6-isopropylnicotinonitrile]"
9,1000 to 5000 nM,"CC(C)c1nc(N2CCN(C(=O)Cc3cccs3)[C@H](C(C)C)C2)c(C#N)cc1-c1ccc(C(F)(F)F)cc1 [Compound 196, (R)-6-isopropyl-2-(3-isopropyl-4-(2-(thiophen-2-yl)acetyl)piperazin-1-yl)-5-(4-(trifluoromethyl)phenyl)-nicotinonitrile]"
10,1000 to 5000 nM,"CCOc1ccccc1-c1cc(C#N)c(N2CCN(C(=O)c3ccco3)C[C@@H]2C)nc1C(C)C [Compound 184, (S)-5-(2-ethoxyphenyl)-2-(4-(furan-2-carbonyl)-2-methylpiperazin-1-yl)-6-isopropylnicotinonitrile]"
11,5000 to 15000 nM,"N#Cc1cc(-c2ccccc2)c(-c2ccccc2)nc1N1CCN(C(=O)c2ccoc2)CC1 [Compound 122, 2-(4-(furan-3-carbonyl)piperazin-1-yl)-5,6-diphenylnicotinonitrile]"
12,5000 to 15000 nM,"CC(C)c1nc(N2CCN(C(=O)c3ccco3)CC2c2ccccc2)c(C#N)cc1-c1ccccc1 (stereo not drawn) [Compound 166, 2-(4-(furan-2-carbonyl)-2-phenylpiperazin-1-yl)-6-isopropyl-5-phenylnicotinonitrile]"
13,1000 to 5000 nM,"CC(C)c1nc(N2C[C@@H](C)N(C(=O)Cc3ccccc3)[C@@H](C)C2)c(C#N)cc1-c1ccccc1 [Compound 140, 2-((3S,5R)-3,5-dimethyl-4-(2-phenylacetyl)piperazin-1-yl)-6-isopropyl-5-phenylnicotinonitrile]"
14,1000 to 5000 nM,"COCCC(=O)N1CCN(c2nc(C(C)C)c(-c3cccc(Cl)c3)cc2C#N)C[C@H]1C [Compound 218, (R)-5-(3-chlorophenyl)-6-isopropyl-2-(4-(3-methoxypropanoyl)-3-methylpiperazin-1-yl)nicotinonitrile]"
15,≤ 1000 nM,"COCCC(=O)N1CCN(c2nc(C3CC3)c(-c3cccc(C)c3)cc2C#N)C[C@H]1C [Compound 225, (R)-6-cyclopropyl-2-(4-(3-methoxypropanoyl)-3-methylpiperazin-1-yl)-5-m-tolylnicotinonitrile]"
16,1000 to 5000 nM,"CC(C)c1ccc(-c2cc(C#N)c(N3CCN(C(=O)c4ccoc4)[C@H](C)C3)nc2C(C)C)cc1 [Compound 206, (R)-2-(4-(furan-3-carbonyl)-3-methylpiperazin-1-yl)-6-isopropyl-5-(4-isopropylphenyl)nicotinonitrile]"

# Same assay, conditions: enzyme assay of Example 12; read-out: IDH1R132H IC50
row,IC50,SMILES
1,500 to 1000 nM,"N#Cc1cc(-c2cccc3cnccc23)c(C2CC2)nc1N1CCN(C(=O)CCC=O)[C@H](C2CC2)C1 [Compound 519, (R)-6-cyclopropyl-2-(3-cyclopropyl-4-(4-oxobutanoyl)piperazin-1-yl)-5-(isoquinolin-5-yl)nicotinonitrile]"
2,1000 to 10000 nM,"N#Cc1cc(Cc2ccnc(Cl)c2)c(C2CC2)nc1N1CCN(C(=O)C2CC2)[C@H](C2CC2)C1 [Compound 685, (R)-5-((2-chloropyridin-4-yl)methyl)-2-(4-(cyclopropanecarbonyl)-3-cyclopropylpiperazin-1-yl)-6-cyclopropylnicotinonitrile]"
3,< 500 nM,"N#Cc1cncc(-c2cc(C#N)c(N3CCN(C(=O)C4CC4)[C@H](C4CC4)C3)nc2C2CC2)c1 [Compound 494, (R)-6-(4-(cyclopropanecarbonyl)-3-cyclopropylpiperazin-1-yl)-2-cyclopropyl-[3,3′-bipyridine]-5,5′-dicarbonitrile]"
4,< 500 nM,"COCCC(=O)N1CCN(c2nc(C3CC3)c(-c3ccc(F)cc3)cc2-c2nnco2)C[C@H]1C [Compound 392, (R)-1-(4-(6-cyclopropyl-5-(4-fluorophenyl)-3-(1,3,4-oxadiazol-2-yl)pyridin-2-yl)-2-methylpiperazin-1-yl)-3-methoxypropan-1-one]"
5,< 500 nM,"COCCC(=O)N1CCN(c2nc(C3CC3)c(-c3ccccc3CO)c(C)c2C#N)C[C@H]1C [Compound 372, (R)-6-cyclopropyl-5-(2-hydroxymethyl-phenyl)-2-[4-(3-methoxy-propionyl)-3-methyl-piperazin-1-yl]-4-methyl-nicotinonitrile]"
6,< 500 nM,"COCCC(=O)N1CCN(c2nc(C3CC3)c(Nc3ccnc(C(=O)OC)c3)cc2C#N)C[C@H]1C [Compound 683, (R)-methyl 4-((5-cyano-2-cyclopropyl-6-(4-(3-methoxypropanoyl)-3-methylpiperazin-1-yl)pyridin-3-yl)amino)picolinate]"
7,500 to 1000 nM,"COCCC(=O)N1CCN(c2nc(C3CC3)c(Nc3ccc(F)cc3)cc2C#N)C[C@H]1C [Compound 355, (R)-6-cyclopropyl-5-((4-fluorophenyl)amino)-2-(4-(3-methoxypropanoyl)-3-methylpiperazin-1-yl)nicotinonitrile]"
8,500 to 1000 nM,"C[C@@H]1CN(c2nc(C3CC3)c(-c3ccc(C#N)nc3)cc2C#N)CCN1C(=O)C1CC1 [Compound 583, (R)-6-(4-(cyclopropanecarbonyl)-3-methylpiperazin-1-yl)-2-cyclopropyl-3,3′-bipyridine-5,6′-dicarbonitrile]"
9,< 500 nM,"C=Cc1cc(-c2c(C3CC3)nc(N3CCN(C(=O)CCC4CC4)[C@H](C4CC4)C3)c(C#N)c2C)ccn1 [Compound 825, (R)-2-cyclopropyl-6-(3-cyclopropyl-4-(3-cyclopropylpropanoyl)piperazin-1-yl)-4-methyl-2′-vinyl-3,4′-bipyridine-5-carbonitrile]"
10,500 to 1000 nM,"COCCC(=O)N1CCN(c2nc(C3CC3)c(-c3ccc(-c4ccccc4)c(F)c3)c(C)c2C#N)C[C@H]1C [Compound 282, (R)-6-cyclopropyl-5-(2-fluorobiphenyl-4-yl)-2-(4-(3-methoxypropanoyl)-3-methylpiperazin-1-yl)-4-methylnicotinonitrile]"
11,1000 to 10000 nM,COCCC(=O)N1CCN(c2nc(C3CC3)c(-c3cccc4c(O)ncnc34)cc2C#N)C[C@H]1C [Compound 430]
12,< 500 nM,"N#Cc1cc(-c2cncc(-c3nnn[nH]3)c2)c(C2CC2)nc1N1CCN(C(=O)C2CC2)[C@H](C2CC2)C1 [Compound 554, (R)-6-(4-(cyclopropanecarbonyl)-3-cyclopropylpiperazin-1-yl)-2-cyclopropyl-5′-(1H-tetrazol-5-yl)-[3,3′-bipyridine]-5-carbonitrile]"
13,500 to 1000 nM,"N#Cc1cc(-c2cccc3cnccc23)c(C2CC2)nc1N1CCN(C(=O)C2CC2)CC(F)C1 (stereo not drawn) [Compound 477, 2-(4-(cyclopropanecarbonyl)-6-fluoro-1,4-diazepan-1-yl)-6-cyclopropyl-5-(isoquinolin-5-yl)nicotinonitrile]"
14,500 to 1000 nM,"N#Cc1cc(-c2cn[nH]c2)c(C2CC2)nc1N1CCN(C(=O)C2CC2)[C@H](C2CC2)C1 [Compound 479, (R)-2-(4-(cyclopropanecarbonyl)-3-cyclopropylpiperazin-1-yl)-6-cyclopropyl-5-(1H-pyrazol-4-yl)nicotinonitrile]"
15,500 to 1000 nM,"N#Cc1cc(-c2cnn(C3CCC(O)C3)c2)c(C2CC2)nc1N1CCN(C(=O)C2CC2)[C@H](C2CC2)C1 (stereo partly drawn) [Compound 493, 2-((R)-4-(cyclopropanecarbonyl)-3-cyclopropylpiperazin-1-yl)-6-cyclopropyl-5-(1-(3-hydroxycyclopentyl)-1H-pyrazol-4-yl)nicotinonitrile]"
16,500 to 1000 nM,"N#Cc1cc(-c2cccc3cnccc23)c(C2CC2)nc1N1CCN(C(=O)C2CC2)C(C(F)F)C1 (stereo not drawn) [Compound 422, 2-(4-(cyclopropanecarbonyl)-3-(difluoromethyl)piperazin-1-yl)-6-cyclopropyl-5-(isoquinolin-5-yl)nicotinonitrile]"
17,< 500 nM,"N#Cc1cc(-c2cc(C#N)c(N3CCN(C(=O)C4CC4)[C@H](C4CC4)C3)nc2C2CC2)cnn1 [Compound 641, (R)-5-(5-cyano-6-(4-(cyclopropanecarbonyl)-3-cyclopropylpiperazin-1-yl)-2-cyclopropylpyridin-3-yl)pyridazine-3-carbonitrile]"
